Measurements from patent US20260102501A1, “ANTI-CANCER NUCLEAR HORMONE RECEPTOR-TARGETING COMPOUNDS” (Nuvation Bio Inc., priority 2022, published 2026).
Where a chain is given by its changes, count along the chain named. Where a name gives a salt, the structure may show the parent alone. Read-outs that look alike come from different tables or passages of the source.

How the values were obtained:
[1] = tested on: LNCap cells; experiment: Cell viability assay (CellTiterGlo); format: cell-based; details: Homo sapiens, 144 h
[2] = tested on: T47D cells; experiment: Cell viability assay (CellTiterGlo); format: cell-based; details: Homo sapiens, 144 h
[3] = tested on: IEC6 cells; experiment: Cell viability assay (CellTiterGlo); details: Rattus norvegicus, IEC-6, 144 h, read-out: IEC-6 (IC50, nM)
[4] = target: T1, AR (cytosol from LnCaP cells) (Homo sapiens, UniProt P10275, T878A); experiment: AR binding assay (3H-R1881 displacement)
T1 sequence (P10275 1-920 T878A): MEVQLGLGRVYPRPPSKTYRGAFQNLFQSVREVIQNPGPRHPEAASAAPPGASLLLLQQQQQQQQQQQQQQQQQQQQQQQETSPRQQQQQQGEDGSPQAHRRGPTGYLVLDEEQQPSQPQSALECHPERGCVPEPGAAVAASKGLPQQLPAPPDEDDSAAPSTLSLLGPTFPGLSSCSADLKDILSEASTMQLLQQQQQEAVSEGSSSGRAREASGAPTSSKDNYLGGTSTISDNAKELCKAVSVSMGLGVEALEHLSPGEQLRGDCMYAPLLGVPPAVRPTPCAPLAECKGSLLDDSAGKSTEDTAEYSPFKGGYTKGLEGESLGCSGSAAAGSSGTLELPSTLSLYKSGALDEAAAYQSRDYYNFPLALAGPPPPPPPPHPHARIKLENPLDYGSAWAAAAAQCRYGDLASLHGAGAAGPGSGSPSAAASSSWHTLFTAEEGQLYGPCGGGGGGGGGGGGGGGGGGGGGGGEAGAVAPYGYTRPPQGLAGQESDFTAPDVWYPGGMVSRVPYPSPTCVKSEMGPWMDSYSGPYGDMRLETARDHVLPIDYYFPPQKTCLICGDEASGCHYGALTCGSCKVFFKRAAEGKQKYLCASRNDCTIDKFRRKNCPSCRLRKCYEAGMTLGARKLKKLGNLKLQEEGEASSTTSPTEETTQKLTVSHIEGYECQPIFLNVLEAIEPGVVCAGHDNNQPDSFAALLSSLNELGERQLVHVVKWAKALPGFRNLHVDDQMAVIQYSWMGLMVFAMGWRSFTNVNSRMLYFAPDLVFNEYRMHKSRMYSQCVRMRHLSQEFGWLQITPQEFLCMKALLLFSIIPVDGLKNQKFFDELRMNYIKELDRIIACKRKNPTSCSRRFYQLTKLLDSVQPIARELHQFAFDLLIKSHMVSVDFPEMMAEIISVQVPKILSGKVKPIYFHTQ
Protocol: The plate was then centrifuged at 3000 rpm for 30 minutes at 4° C.

[5] = target: T2, full-length androgen receptor (HEK293 cells stably expressing) (Homo sapiens, UniProt P10275); experiment: AR antagonism assay (luciferase reporter)
T2 sequence (P10275 1-920): T1 sequence (P10275 1-920 T878A) with A878T

[6] = target: T3, GR (cytosol from IM-9 cells) (Homo sapiens, UniProt P04150); experiment: GR binding assay (3H-Dexamethasone displacement)
T3 sequence (P04150 1-777): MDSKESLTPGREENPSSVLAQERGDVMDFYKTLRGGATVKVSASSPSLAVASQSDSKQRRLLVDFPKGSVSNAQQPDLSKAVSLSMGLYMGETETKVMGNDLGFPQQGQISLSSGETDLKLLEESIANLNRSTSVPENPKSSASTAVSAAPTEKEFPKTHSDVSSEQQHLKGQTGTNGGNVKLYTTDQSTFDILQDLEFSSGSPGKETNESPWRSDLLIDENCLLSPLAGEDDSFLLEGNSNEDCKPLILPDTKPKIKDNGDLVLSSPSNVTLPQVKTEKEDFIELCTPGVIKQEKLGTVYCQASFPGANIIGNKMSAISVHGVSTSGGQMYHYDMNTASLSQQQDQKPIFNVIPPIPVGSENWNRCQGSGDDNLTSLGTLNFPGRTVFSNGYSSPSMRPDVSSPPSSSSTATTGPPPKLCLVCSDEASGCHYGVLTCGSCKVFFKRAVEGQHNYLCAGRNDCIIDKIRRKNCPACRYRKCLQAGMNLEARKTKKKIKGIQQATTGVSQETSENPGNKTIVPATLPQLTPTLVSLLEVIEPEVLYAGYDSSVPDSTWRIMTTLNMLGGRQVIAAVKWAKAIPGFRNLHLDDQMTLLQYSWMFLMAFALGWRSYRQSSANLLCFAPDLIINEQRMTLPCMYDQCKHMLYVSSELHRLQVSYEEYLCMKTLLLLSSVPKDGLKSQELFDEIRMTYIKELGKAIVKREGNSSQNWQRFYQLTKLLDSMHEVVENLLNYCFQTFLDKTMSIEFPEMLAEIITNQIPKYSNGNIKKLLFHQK

[7] = tested on: 22Rv1 cells; experiment: Cell viability assay (CellTiterGlo); details: Homo sapiens, 22Rv1, 144 h, read-out: 22RV1 (IC50, nM)
[8] = target: T4, ligand binding domain of the glucocorticoid receptor (HEK293 cells stably expressing) (Homo sapiens, UniProt P04150); experiment: GR antagonism assay (luciferase reporter)
T4 sequence (P04150 524-758 limits assumed): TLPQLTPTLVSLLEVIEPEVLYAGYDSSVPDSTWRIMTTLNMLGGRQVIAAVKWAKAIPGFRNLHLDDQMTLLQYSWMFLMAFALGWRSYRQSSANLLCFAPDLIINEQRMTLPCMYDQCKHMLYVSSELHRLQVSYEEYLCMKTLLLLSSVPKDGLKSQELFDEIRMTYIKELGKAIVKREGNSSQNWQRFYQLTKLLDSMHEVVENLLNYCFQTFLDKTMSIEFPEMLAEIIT
Protocol: HEK293 cells stably expressing the ligand binding domain of the glucocorticoid receptor were seeded at a density of 40000 cells/well in the assay plate. The assay plate was then incubated at 37° C., 5% CO2 for 30 minutes. Dexamethasone was added to the assay plate at 1.5 nM final concentration and the assay plate incubated at 37° C., 5% CO2 for 20 h. After the incubation period, Dual-glo luciferase reagent was added to the assay plate and mixed at room temperature for 20 minutes on an orbital shaker, before reading out on the En Vision plate reader. 50 μL of Stop & Glo reagent was added to assay plate, mixed at room temperature for 20 minutes, and read on the Envision plate reader.

[9] = 6 days incubation, CellTiterGlo, read-out: LNCap (IC50)
[10] = 6 days incubation, CellTiterGlo, read-out: T47D (IC50)

Compound | IC50 [1, 9] [nM] | IC50 [2, 10] [nM] | IC50 [3] [nM] | IC50 [4] [nM] | IC50 [5] [nM] | IC50 [6] [nM] | IC50 ([1]; read-out: LNCap (IC50, nM)) [nM] | IC50 ([2]; read-out: T47D (IC50, nM)) [nM] | IC50 [7] [nM] | IC50 [8] [nM]
CC[C@@]1(O)C(=O)OCc2c1cc1n(c2=O)Cc2cc3c(CN4CCN(CC5CCN(c6ccc(C(=O)N[C@H]7CC[C@H](N(C)c8ccc(C#N)c(Cl)c8)CC7)nn6)CC5)CC4)c(OC)ccc3nc2-1 [Compound 40, N-((1r,4r)-4-((3-chloro-4-cyanophenyl)(methyl)amino)cyclohexyl)-6-(4-((4-(((S)-4-ethyl-4-hydroxy-9-methoxy-3,14-dioxo-3,4,12,14-tetrahydro-1H-pyrano[3′,4′:6,7]indolizino[1,2-b]quinolin-10-yl)methyl)piperazin-1-yl)methyl)piperidin-1-yl)pyridazine-3-carboxamide formic acid salt] | 101 to 1000 | 10 to 100 | 101 to 1000 | 10 to 100 | > 1000 |  |  |  |  | 
CC[C@@]1(O)C(=O)OCc2c1cc1n(c2=O)Cc2c-1nc1cc(F)c(C)c3c1c2[C@@H](N(C)C(=O)COCCC(=O)N1CCC(CN(C)c2ccc([C@H]4C[C@@]5(C)[C@@H](CC[C@]5(OC(C)=O)C(C)=O)[C@@H]5CCC6=CC(=O)CCC6=C54)cc2)CC1)CC3 [Compound 54] | 10 to 100 | 101 to 1000 | 101 to 1000 |  |  |  |  |  |  | 
CC[C@@]1(OC(=O)N2CCN(CCCCCCN(C)c3ccc([C@H]4C[C@@]5(C)[C@@H](CC[C@]5(OC(C)=O)C(C)=O)[C@@H]5CCC6=CC(=O)CCC6=C54)cc3)CC2)C(=O)OCc2c1cc1n(c2=O)Cc2cc3cc(O)ccc3nc2-1 [Compound 57, (S)-4-ethyl-9-hydroxy-3,14-dioxo-3,4,12,14-tetrahydro-1H-pyrano[3′,4′:6,7]indolizino[1,2-b]quinolin-4-yl 4-(6-((4-((8S,11R,13S,14S,17R)-17-acetoxy-17-acetyl-13-methyl-3-oxo-2,3,6,7,8,11,12,13,14,15,16,17-dodecahydro-1H-cyclopenta[a]phenanthren-11-yl)phenyl)(methyl)amino)hexyl)piperazine-1-carboxylate] | 101 to 1000 | 10 to 100 | > 1000 | 10 to 100 |  | < 10 |  |  |  | 
CC[C@@]1(O)C(=O)OCc2c1cc1n(c2=O)Cc2cc3c(CN(C)C)c(OC(=O)N4CCN(CCCCCCNc5ccc([C@H]6C[C@@]7(C)[C@@H](CC[C@]7(OC(C)=O)C(C)=O)[C@@H]7CCC8=CC(=O)CCC8=C76)cc5)CC4)ccc3nc2-1 [Compound No. 61, (S)-10-((dimethylamino)methyl)-4-ethyl-4-hydroxy-3,14-dioxo-3,4,12,14-tetrahydro-1H-pyrano[3′,4′:6,7]indolizino[1,2-b]quinolin-9-yl 4-(6-((4-((8S,11R,13S,14S,17R)-17-acetoxy-17-acetyl-13-methyl-3-oxo-2,3,6,7,8,11,12,13,14,15,16,17-dodecahydro-1H-cyclopenta[a]phenanthren-11-yl)phenyl)amino)hexyl)piperazine-1-carboxylate] |  |  |  | 10 to 100 | 101 to 1000 | < 10 | 101 to 1000 | 10 to 100 |  | 
CC[C@@]1(O)C(=O)OCc2c1cc1n(c2=O)Cc2cc3c(CN(C)C)c(OC(=O)N(C)Cc4ccc(NC(=O)[C@H](CCCNC(N)=O)NC(=O)[C@@H](NCCCCCCN(C)c5ccc([C@H]6C[C@@]7(C)[C@@H](CC[C@]7(OC(C)=O)C(C)=O)[C@@H]7CCC8=CC(=O)CCC8=C76)cc5)C(C)C)cc4)ccc3nc2-1 [Compound No. 60] |  |  |  | 10 to 100 | > 1000 | < 10 | > 1000 | > 1000 |  | 
CC[C@@]1(O)C(=O)OCc2c1cc1n(c2=O)Cc2cc3c(CN(C)C)c(OC(=O)N4CCN(CC5CCN(c6ccc(C(=O)N[C@H]7CC[C@H](N(C)c8ccc(C#N)c(Cl)c8)CC7)nn6)CC5)CC4)ccc3nc2-1 [Compound No. 18, (S)-10-((Dimethylamino)methyl)-4-ethyl-4-hydroxy-3,14-dioxo-3,4,12,14-tetrahydro-1H-pyrano[3′,4′:6,7]indolizino[1,2-b]quinolin-9-yl 4-((1-(6-(((1r,4r)-4-((3-chloro-4-cyanophenyl)(methyl)-amino)cyclohexyl)carbamoyl)pyridazin-3-yl)piperidin-4-yl)methyl)piperazine-1-carboxylate] |  |  | 101 to 1000 | 10 to 100 | 101 to 1000 | 101 to 1000 | 10 to 100 |  | 10 to 100 | 101 to 1000
CC[C@@]1(O)C(=O)OCc2c1cc1n(c2=O)Cc2c-1nc1cc(F)c(C)c3c1c2[C@@H](NC(=O)OCc1ccc(NC(=O)[C@H](CCCNC(N)=O)NC(=O)[C@@H](NCCCCCCN(C)c2ccc([C@H]4C[C@@]5(C)[C@@H](CC[C@]5(OC(C)=O)C(C)=O)[C@@H]5CCC6=CC(=O)CCC6=C54)cc2)C(C)C)cc1)CC3 [Compound 59] |  |  |  | 101 to 1000 | 101 to 1000 | 10 to 100 | 10 to 100 | 10 to 100 |  | 
